Patent publication US6448032B1, “Human melanocyte stimulating hormone receptor polypeptide and DNA” (priority 1992, dated 2002)
No end group written: not given here.

What was measured:
MSH receptor [1] = molecular target: T1, MSH receptor (Homo sapiens, UniProt Q01726); experiment: Inhibition of 125I-NDP-MSH binding to stable COS-7 cell line harbouring pRC/CMV-11D; details: NDP-MSH radioligand competition
T1 construct: This polypeptide constitutes the entire polypeptide of an MSH receptor; expressed in transfected cells; host or cells: COS-7 cells, transient, plasmid pE-11D (pcDNAI)
T1 sequence (Q01726 whole entry): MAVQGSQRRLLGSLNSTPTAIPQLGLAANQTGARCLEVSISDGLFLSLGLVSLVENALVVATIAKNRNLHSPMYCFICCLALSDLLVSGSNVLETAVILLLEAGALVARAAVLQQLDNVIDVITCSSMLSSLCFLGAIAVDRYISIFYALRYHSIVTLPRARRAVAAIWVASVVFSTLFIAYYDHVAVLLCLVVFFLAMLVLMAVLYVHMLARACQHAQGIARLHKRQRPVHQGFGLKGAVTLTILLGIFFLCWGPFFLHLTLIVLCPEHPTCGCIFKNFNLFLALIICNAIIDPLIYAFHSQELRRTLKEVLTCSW
Description: COS-7 cells (available from ATCC) were grown in Dulbecco's modified Eagle medium with 8% fetal calf serum and non-essential amino acids (Gibco/BRL, 8400 Helgerman Court, Gaithersburg, Md. 20877, USA) in serum free medium, five hours after transfection, serum containing medium was replaced, and cells were cultivated for 48 hours. At this time selection for the calls stably harbouring the pRC/CMV-11D plasmid was begun by growing the cells in neomycin (0.5 mg/ml) containing medium (selection medium). Selection procedure was continued for two weeks, replacing the selection medium every 4th day. surviving cells were collected and maintained in the selection medium. These cells constitute the stable cell line.
To investigate the binding properties cells were scraped off from the culture flask, centrifuged, resuspended in selection medium, plated on 48 well, and allowed to grow for 24 hours. […] Radioactivity was counted and data analyzed by an iterative, non-linear curve fitting programme suitable for radioligand binding analysis. […]

MSH receptor [2] = molecular target: T1, MSH receptor; experiment: Inhibition of 125I-NDP-MSH binding to COS-7 cells transfected with MSH receptor cDNA (pE-11D); details: pE-11D transfected COS-7 cells
Description: (§1) Eighty percent confluent cultures were transfected with 1 μg of pE-11D plasmid DNA and 40 μg lipofectin (BRL, 8400 Helgerman Court, Gaithersburg, Md. 20877, USA) in serum free medium. Five hours after transfection, serum containing medium was replaced, and cells were cultivated for 20 hours. Cells were then scraped off, centrifuged, resuspended in serum containing medium, plated on 48 well plates, and allowed to grow for 24 hours. […] Radioactivity was counted and data analyzed by iterative, non-linear curve fitting programme suitable for radioligand binding analysis (see FIG. 6).

MC-2 receptor = molecular target: T2, MC-2 receptor (Homo sapiens, UniProt P33032); experiment: Inhibition of 125I-NDP-MSH binding to COS-7 cells transfected with pE-MC-2; details: pE-MC-2 transfected COS-7 cells
T2 construct: expressed in transfected cells; host or cells: COS-7 cells, transient, plasmid pE-MC-2 (pRC/CMV)
T2 sequence (P33032 whole entry): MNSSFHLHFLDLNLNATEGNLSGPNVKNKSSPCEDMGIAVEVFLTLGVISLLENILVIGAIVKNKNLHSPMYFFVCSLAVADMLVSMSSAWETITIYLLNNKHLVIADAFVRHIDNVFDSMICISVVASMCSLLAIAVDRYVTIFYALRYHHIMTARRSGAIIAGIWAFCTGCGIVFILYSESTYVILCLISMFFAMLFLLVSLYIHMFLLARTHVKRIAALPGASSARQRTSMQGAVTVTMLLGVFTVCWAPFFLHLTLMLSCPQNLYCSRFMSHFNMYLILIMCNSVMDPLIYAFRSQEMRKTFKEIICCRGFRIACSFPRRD
Description: as §1, with “pE-MC-2” for “pE-11D”, “9).” for “6).”

[3] = 37° C., 2 hours, Ki from IC-50 by Cheng and Prusoff equation, read-out: Ki for inhibiting 125I-NDP-MSH binding

Compound | binding affinity for the expressed MSH receptor (MSH receptor [1]) | Ki (MSH receptor [2]; [3]) [nM] | Ki (MC-2 receptor; [3]) [nM] | affinity for the expressed MSH receptor (MSH receptor [2]; 125I-NDP-MSH competition) | affinity for the expressed MC-2 receptor (MC-2 receptor; 125I-NDP-MSH competition)
CSCC[C@H](N)C(=O)N[C@@H](CCC(=O)O)C(=O)N[C@@H](Cc1c[nH]cn1)C(=O)N[C@@H](Cc1ccccc1)C(=O)N[C@@H](CCCNC(=N)N)C(=O)N[C@@H](Cc1c[nH]c2ccccc12)C(=O)NCC(=O)O [ACTH (4-10)] | very low binding affinity |  |  |  | 
SYSMEHFRWGKPVGKKRRPVKVYPNGAEDESAEAFPLEF [ACTH (1-39)] |  | 0.17 ± 0.037 | 929 ± 389 |  | 
β-endorphin: non-melanotropic POMC peptide | no affinity |  |  | no affinity | no affinity
